What was measured:
[1] = tested on: human breast cancer cell line HCC1954; experiment: HCC1954 growth inhibition assay; type: cell-based; conditions: 3 days incubation, CellTiter-Glo
Protocol: In this assay, the growth inhibitory activity of test compounds in a human breast cancer cell line HCC1954 was measured. HCC1954 cells were maintained in an RPMI-1640 medium modified to contain 2 mM L-glutamine, 10 mM HEPES, 1 mM sodium pyruvate, 4500 mg/L glucose, and 1500 mg/L sodium bicarbonate (ATCC 30-2001) containing 10% fetal bovine serum (FBS: Nichirei, 12D168), and penicillin and streptomycin in a 5% CO2 incubator (37° C.). To each well of a 96 well plate (Becton, Dickinson and Company, 353219), 75 μL of HCC1954 cell suspension adjusted to a concentration of 4×10^4 cells/mL with the culture medium was added, and the cells were incubated overnight in a 5% CO2 incubator (37° C.). On the next day, 25 μL of Compound (1) or Halichondrin B in three-fold dilution series suspended in the culture medium was added to each well, and the resultant was incubated for 3 days in a 5% CO2 incubator (37° C.). Then, cell viability was determined by CellTiter-Glo® Luminescent Cell Viability Assay (Promega) with EnVision 2103 Multilabel Reader (Perkin-Elmer, Wellesley, Mass.). Value of the wells containing cells without adding the test compounds was defined as 100% and the value of the wells containing no cells was defined as 0%. The concentration of the test compound necessary for inhibiting the cell growth by 50% (i.e., an IC50 value) was calculated, and shown in Table 3.

[2] = tested on: KPL-4 subcutaneous xenograft; experiment: Antitumor activity in KPL-4 subcutaneous xenograft model in combination with trastuzumab in mice; type: in vivo
Protocol: A human HER-2 positive breast cancer cell line KPL-4, which had been cultured in an RPMI-1640 medium containing 10% FBS, and penicillin and streptomycin, was adjusted to a concentration of 1×10^8 cells/mL with Hank's Balanced Salt Solution to prepare a cell suspension. The cell suspension was inoculated in a volume of 100 μL into a subcutaneous part of a right flank of nude mice, 7 weeks of ages (CAnN.Cg-Foxnlnu/CrlCrlj, female, Charles River Laboratories Japan, Inc.).
On the basis of the volumes of tumors obtained on the first day of administration, the mice were grouped such that averages of the tumor volumes were substantially equal among the groups. The experiment was conducted on groups each consisting of 6 mice. Each test compound was dissolved in DMSO and a solution was stored at the freezer before use. Immediately before the administration, the stock solution was diluted in saline.

[3] = tested on: HSC-2-Luc orthotopic transplantation (tongue); experiment: HSC-2 orthotopic transplantation mouse model; type: in vivo, mice
[4] = tested on: MES-SA (human uterine sarcoma); experiment: In vitro antiproliferative activity, MES-SA; type: cell-based; conditions: 72 hours
Protocol: The in vitro antiproliferative assays for Compound (1) were conducted using a small panel of cancer cell lines including human squamous cell carcinoma of the esophagus (OE21, TE-8), human adenocarcinoma of the esophagus (OE33), and human uterine sarcoma (MES-SA, MES-SA-Dx5-Rx1). All cell lines were cultured in RPMI-1640 medium containing 10% FBS, and penicillin-streptomycin (culture medium), in a 5% CO2 incubator (37° C.). To each well of a 96 well plate (Becton, Dickinson and Company, 353219), 75 μL of cell suspension adjusted to a concentration of 4×10^4 cells/mL with the culture medium was added, and the cells were incubated overnight in a 5% CO2 incubator (37° C.). On the next day, 25 μL of Compound (1) in three-fold dilution series suspended in the culture medium was added to each well, and the resultant was incubated for 72 hours in a 5% CO2 incubator (37° C.). Then, cell viability was determined by CellTiter-Glo® Luminescent Cell Viability Assay (Promega) with 2013 EnVision™ Multilabel Reader (Perkin-Elmer, Wellesley, Mass.). Value of the wells containing cells without adding the test compounds was defined as 100% and the value of the wells containing no cells was defined as 0%. […] The P-gp susceptibility was calculated as the ratio of the IC50 value in MES-SA-Dx5-Rx1 cells, which overexpress P-gp, to the IC50 value in MES-SA cells.

[5] = tested on: FaDu subcutaneous xenograft; experiment: Antitumor effects in FaDu subcutaneous xenograft model in combination with cetuximab in mice, single dose (Test Example 21); type: in vivo; conditions: single dose Day 1
Protocol: A human squamous cell carcinoma of the head and neck (SCCHN) cell line FaDu, which had been cultured in an RPMI-1640 medium containing 10% FBS, and penicillin-streptomycin, was adjusted to a concentration of 5×10^7 cells/mL with Hanks' Balanced Salt Solution to prepare a cell suspension. The cell suspension was inoculated in a volume of 100 μL into a subcutaneous part of a right flank of athymic mice (CAnN.Cg-Foxnlnu/CrlCrlj, female, 7 weeks old, Charles River Japan Inc.). Ten days after cell inoculation (Day 1), the length and the width of a tumor in each mouse were measured by using an electronic digital caliper (Mitutoyo Corporation), so as to calculate the volume of the tumor in accordance with the following calculation formula: Tumor volume (mm^3)=Longest diameter (mm)×Shortest diameter (mm)×Shortest diameter (mm)/2 Relative tumor volume (RTV)=Tumor volume (day X)/Tumor volume (the first day)
On the basis of TV, the mice were randomly grouped (Day 1). Each group was consisted in six mice. Compound (1) was dissolved in DMSO and a solution was stored in the freezer before use.

[6] = tested on: HT-1080 (human fibrosarcoma) xenograft; experiment: Antitumor effects in HT-1080 soft tissue sarcoma xenograft model in mice as monotherapy; type: in vivo; conditions: 180 μg/kg intravenously on Day 1 and Day 8
Protocol: A human fibrosarcoma cell line HT-1080, which had been cultured in an E-MEM containing 10% FBS, NEAA and antibiotics was adjusted to a concentration of 3×10^7 cells/mL with medium to prepare a cell suspension. The cell suspension was inoculated in a volume of 100 μL into a subcutaneous part of a right flank of athymic mice (CAnN.Cg-Foxnlnu/CrlCrlj, female, 6 weeks old, Charles River Japan Inc.). Six days after cell inoculation (Day 1), the length and the width of a tumor in each mouse were measured by using an electronic digital caliper (Mitutoyo Corporation), so as to calculate the volume of the tumor in accordance with the following calculation formula: Tumor volume (mm^3)=Longest diameter (mm)×Shortest diameter (mm)×Shortest diameter (mm)/2 Relative tumor volume (RTV)=Tumor volume (day X)/Tumor volume (the first day)
On the basis of TV, the mice were randomly grouped (Day 1). Each group was consisted in six mice. Compound (1) was dissolved in DMSO and a solution was stored in the freezer before use. Compound (1) (180 μg/kg) was diluted with saline and intravenously injected on Day 1 and Day 8.

C=C1C[C@@H]2CC[C@@]34C[C@H]5O[C@H]6[C@@H](O3)[C@H]3O[C@H](CC[C@@H]3O[C@H]6C5O4)CC(=O)O[C@@H]3[C@@H](C)[C@@H]4O[C@@H]5C[C@]6(C[C@@H]7O[C@]8(C[C@H](C)[C@@H]9O[C@H](CN)[C@H](O)C[C@@H]9O8)C[C@H](C)[C@@H]7O6)O[C@@H]5C[C@@H]4O[C@H]3C[C@H]3O[C@@H](CC[C@@H]1O2)C[C@@H](C)C3=C [Compound (1)]
IC50 [1]: 0.0668 nM
Tumor Regression (%) ([2]; 0.09 mg/kg intravenously + trastuzumab 10 mg/kg): 83%
Tumor Regression (%) ([2]; 0.09 mg/kg intravenously, without trastuzumab): 43%
Tumor Regression (%) ([2]; 0.18 mg/kg intravenously + trastuzumab 10 mg/kg): 100%
Tumor Regression (%) ([2]; 0.18 mg/kg intravenously, without trastuzumab): 87%
survived mice on Day 100 ([3]; Compound (1)+CTX combination group, n=16): 10
bioluminescence signal ([3]; with cetuximab, after Day 14): clearly reduced the bioluminescence signal in all mice
antiproliferative activity [4]: potent antiproliferative agent
antitumor efficacy with CTX ([5]; 180 μg/kg + CTX 10 mg/kg): stronger than that of CTX monotherapy with tumor regression
antitumor efficacy with CTX ([5]; 20 mg/kg + CTX 10 mg/kg): tended to be stronger than that of CTX monotherapy
antitumor efficacy with CTX ([5]; 60 mg/kg + CTX 10 mg/kg): stronger than that of CTX monotherapy with tumor regression
antitumor activity [6]: tumor regression
